In patent US11684667B2 (priority 2017, dated 2023):

Assays:
BMDMs [1] = assay type: cell-based, mouse; settings: N15m1-infected BMDMs, MOI 0.1, 18 hpi; zVAD 20 μM, C16 1 μM
Description: Bioanalyzer RNA analysis. Equal amounts of total RNA purified from BMDMs were analyzed on an Agilent 2100 Bioanalyzer using RNA Nano LabChips.

BMDMs [2] = assay type: cell-based, mouse; settings: zVAD 20 μM
Description: Cell death assays. Cell viability and Caspase 3/7 activity were measured using CellTiter Glo (G7571, Promega) or CaspaseGlo 3/7 (G8091, Promega) respectively, according to the manufacturer's protocol, with modification.
Cell death assays. Cell viability and Caspase 3/7 activity were measured using CellTiter Glo (G7571, Promega) or CaspaseGlo 3/7 (G8091, Promega) respectively, according to the manufacturer's protocol, with modification. Briefly, 3.0×10^5 BMDMs/well were plated in 24-well plates and infected at an MOI of 0.1 for 1 h in serum-free media. Media was replaced with complete media, or for addition of chemical inhibitors, viral inoculum was replaced with completed BMM media containing indicated concentration of inhibitors. Infected BMDMs were incubated for 24h at 37° C./5% CO2. BMDMs were washed twice with 1×PBS and lysed with 100 μL Glo reagent/medium mixture (1:1). 50 μL of cell lysate was used for measuring the luminescence signal. Standard deviation and unpaired t test were performed on technical triplicates and data are representative of three independent experiments. Graphs of cell viability were generated using Prism 7 software (GraphPad Software, Inc.).

For zVAD, the “effect of inhibitor on degradation of host rRNA” value (BMDMs [1]) was “not inhibited”, the “prevention of virus-induced cell death by inhibitor” value (BMDMs [2]; N15m1-infected BMDMs, 24 hpi, Nec-1 25 μM, VX-765 20 μM) was “prevented virus-induced cell death” and the “effect of inhibitor on caspase 3/7 activation in N15m1-infected BMDMs” value (BMDMs [2]; C16 1 μM) was “inhibited by zVAD”.
